For one assay, the target named is hD2L receptors (Homo sapiens, UniProt P14416). As to the kind of experiment: D2R Gi/o-mediated cAMP inhibition assay. The following applies: for activity in Gi/o signaling (in words): cAMP inhibition assay; for Emax: HEK-293T. Type of assay: cell-based.
A further assay concerns the target D2L receptors (Homo sapiens, UniProt P14416). Nature of the assay: D2R β-arrestin-2 recruitment Tango assay. Type of assay: cell-based. The settings on record: for Emax: HTLA, read-out: β-arrestin Emax (%); for EC50: β-arrestin EC50 (nM). On the technique in general: Recruitment of arrestin is a read-out of receptor activation apart from second messengers.
In the next assay the target is 5-HT1B (Homo sapiens, UniProt P28222). As to the kind of experiment: Radioligand binding, 5-HT1B. The settings on record: read-out: Binding affinity Ki (nM), 5-HT1B; radioligand binding.
Sequence of 5-HT1B (P28222 whole entry, species assumed): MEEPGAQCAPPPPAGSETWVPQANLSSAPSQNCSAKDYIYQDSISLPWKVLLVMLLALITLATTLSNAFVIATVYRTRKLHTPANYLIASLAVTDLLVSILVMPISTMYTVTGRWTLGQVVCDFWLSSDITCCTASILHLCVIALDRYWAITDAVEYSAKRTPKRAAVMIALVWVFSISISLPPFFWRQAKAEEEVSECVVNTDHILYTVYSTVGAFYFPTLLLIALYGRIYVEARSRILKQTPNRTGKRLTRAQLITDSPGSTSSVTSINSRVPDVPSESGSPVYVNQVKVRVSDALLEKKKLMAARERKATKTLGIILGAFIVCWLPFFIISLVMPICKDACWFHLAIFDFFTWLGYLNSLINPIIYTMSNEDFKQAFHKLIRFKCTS
The target of the next assay is T1, D4R (Homo sapiens, UniProt P21917).
T1 sequence (P21917 1-419): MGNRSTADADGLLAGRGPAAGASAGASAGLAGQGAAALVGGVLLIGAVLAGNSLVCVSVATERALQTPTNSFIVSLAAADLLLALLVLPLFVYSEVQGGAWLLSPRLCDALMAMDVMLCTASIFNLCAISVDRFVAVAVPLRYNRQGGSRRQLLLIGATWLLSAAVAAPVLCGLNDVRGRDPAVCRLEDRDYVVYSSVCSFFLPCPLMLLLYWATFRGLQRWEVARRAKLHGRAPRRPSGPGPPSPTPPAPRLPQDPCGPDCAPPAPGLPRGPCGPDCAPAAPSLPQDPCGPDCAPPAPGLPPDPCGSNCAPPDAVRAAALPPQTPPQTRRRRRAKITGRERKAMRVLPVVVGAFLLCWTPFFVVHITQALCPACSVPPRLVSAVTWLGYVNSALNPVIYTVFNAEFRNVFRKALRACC
Nature of the assay: Radioligand binding, D4R. The settings on record: read-out: Binding affinity Ki (nM), D4R; radioligand binding.

The target of a further assay is mouse D2Long (Mus musculus, UniProt P61168). As to the kind of experiment: BRET β-arrestin-2 recruitment assay with GRK2 co-expression. It counts as cell-based. For orientation: In BRET a luciferase serves as donor, and the signal depends on an acceptor being close.
Sequence of mouse D2Long (P61168 whole entry): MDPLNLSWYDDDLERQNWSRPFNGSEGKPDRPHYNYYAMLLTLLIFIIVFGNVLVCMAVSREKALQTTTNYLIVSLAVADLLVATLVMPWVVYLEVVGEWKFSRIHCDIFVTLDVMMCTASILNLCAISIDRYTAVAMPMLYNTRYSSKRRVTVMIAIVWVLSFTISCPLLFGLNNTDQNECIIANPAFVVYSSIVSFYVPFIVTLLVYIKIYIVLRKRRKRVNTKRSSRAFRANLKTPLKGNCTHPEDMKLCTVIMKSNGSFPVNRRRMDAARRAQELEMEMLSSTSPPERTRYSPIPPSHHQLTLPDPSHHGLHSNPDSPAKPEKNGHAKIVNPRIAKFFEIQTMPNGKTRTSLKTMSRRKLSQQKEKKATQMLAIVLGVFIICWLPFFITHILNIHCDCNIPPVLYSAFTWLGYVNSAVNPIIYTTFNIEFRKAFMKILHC
In a further assay the target is D3R (Homo sapiens, UniProt P35462). As to the kind of experiment: Radioligand binding, D3R. The following applies: read-out: Binding affinity Ki (nM), D3R; radioligand binding.
Sequence of D3R (P35462 whole entry): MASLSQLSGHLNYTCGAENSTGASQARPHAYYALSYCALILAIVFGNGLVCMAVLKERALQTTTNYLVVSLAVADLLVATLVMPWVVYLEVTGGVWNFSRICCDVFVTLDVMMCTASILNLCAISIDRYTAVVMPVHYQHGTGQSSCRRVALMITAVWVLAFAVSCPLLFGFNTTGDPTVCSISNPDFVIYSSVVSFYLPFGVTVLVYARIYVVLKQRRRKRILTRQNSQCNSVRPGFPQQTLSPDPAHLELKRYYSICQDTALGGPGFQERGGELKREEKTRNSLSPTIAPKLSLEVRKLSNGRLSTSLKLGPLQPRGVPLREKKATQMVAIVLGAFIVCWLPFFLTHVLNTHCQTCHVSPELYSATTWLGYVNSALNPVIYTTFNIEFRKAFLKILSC
The target of another assay is 5-HT2B (Homo sapiens, UniProt P41595). As to the kind of experiment: Radioligand binding, 5-HT2B. The following applies: read-out: Binding affinity Ki (nM), 5-HT2B.
Sequence of 5-HT2B (P41595 whole entry, species assumed): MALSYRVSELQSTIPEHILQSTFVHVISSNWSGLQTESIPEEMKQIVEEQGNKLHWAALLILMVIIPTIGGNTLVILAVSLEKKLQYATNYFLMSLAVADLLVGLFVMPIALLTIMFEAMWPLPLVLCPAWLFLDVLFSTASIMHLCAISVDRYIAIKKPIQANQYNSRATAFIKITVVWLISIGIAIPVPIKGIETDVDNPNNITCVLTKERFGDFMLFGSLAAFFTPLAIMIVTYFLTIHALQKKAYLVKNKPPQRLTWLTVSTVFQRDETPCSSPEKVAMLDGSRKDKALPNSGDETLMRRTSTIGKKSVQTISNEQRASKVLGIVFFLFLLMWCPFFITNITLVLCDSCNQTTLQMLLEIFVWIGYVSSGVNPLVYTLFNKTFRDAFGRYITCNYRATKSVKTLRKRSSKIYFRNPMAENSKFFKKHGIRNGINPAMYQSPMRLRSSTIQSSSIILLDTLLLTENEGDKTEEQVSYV
The next assay has as its target 5-HT1D (Homo sapiens, UniProt P28221). As to the kind of experiment: Radioligand binding, 5-HT1D. The following applies: read-out: Binding affinity Ki (nM), 5-HT1D; radioligand binding.
For a further assay, the target named is 5-HT7 (Homo sapiens, UniProt P34969). Nature of the assay: Radioligand binding, 5-HT7. The following applies: read-out: Binding affinity Ki (nM), 5-HT7; radioligand binding.
Sequence of 5-HT7 (P34969 whole entry, species assumed): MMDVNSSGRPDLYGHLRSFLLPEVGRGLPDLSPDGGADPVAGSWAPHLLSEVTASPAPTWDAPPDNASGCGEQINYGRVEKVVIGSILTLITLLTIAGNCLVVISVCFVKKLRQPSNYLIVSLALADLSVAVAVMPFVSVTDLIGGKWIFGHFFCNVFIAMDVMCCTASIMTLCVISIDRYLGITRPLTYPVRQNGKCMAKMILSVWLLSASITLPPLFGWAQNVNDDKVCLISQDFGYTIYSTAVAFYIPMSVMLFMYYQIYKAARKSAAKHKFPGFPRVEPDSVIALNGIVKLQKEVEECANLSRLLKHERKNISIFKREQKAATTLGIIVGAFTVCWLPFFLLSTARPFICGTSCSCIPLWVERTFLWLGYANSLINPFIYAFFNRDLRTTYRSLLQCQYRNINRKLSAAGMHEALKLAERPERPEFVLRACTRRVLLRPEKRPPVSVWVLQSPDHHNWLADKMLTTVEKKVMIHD
For another assay, the target named is 5-HT2A (Homo sapiens, UniProt P28223). Nature of the assay: Radioligand binding, 5-HT2A. The settings on record: read-out: Binding affinity Ki (nM), 5-HT2A; radioligand binding.
Sequence of 5-HT2A (P28223 whole entry, species assumed): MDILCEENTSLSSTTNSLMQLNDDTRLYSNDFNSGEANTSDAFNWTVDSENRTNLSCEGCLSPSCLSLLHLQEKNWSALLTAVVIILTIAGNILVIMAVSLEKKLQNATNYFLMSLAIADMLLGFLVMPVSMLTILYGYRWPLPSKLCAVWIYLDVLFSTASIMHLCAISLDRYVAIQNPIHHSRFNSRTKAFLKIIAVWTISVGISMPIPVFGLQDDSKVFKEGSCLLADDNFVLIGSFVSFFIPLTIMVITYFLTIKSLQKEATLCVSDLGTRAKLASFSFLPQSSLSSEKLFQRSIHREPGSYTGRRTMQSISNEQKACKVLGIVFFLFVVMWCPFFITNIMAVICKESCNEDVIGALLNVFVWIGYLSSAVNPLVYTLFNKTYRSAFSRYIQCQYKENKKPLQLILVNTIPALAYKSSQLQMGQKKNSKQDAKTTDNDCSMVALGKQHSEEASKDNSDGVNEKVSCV
The next assay concerns the target T2, 5-HT1A (Homo sapiens, UniProt P08908).
T2 sequence (P08908 1-422): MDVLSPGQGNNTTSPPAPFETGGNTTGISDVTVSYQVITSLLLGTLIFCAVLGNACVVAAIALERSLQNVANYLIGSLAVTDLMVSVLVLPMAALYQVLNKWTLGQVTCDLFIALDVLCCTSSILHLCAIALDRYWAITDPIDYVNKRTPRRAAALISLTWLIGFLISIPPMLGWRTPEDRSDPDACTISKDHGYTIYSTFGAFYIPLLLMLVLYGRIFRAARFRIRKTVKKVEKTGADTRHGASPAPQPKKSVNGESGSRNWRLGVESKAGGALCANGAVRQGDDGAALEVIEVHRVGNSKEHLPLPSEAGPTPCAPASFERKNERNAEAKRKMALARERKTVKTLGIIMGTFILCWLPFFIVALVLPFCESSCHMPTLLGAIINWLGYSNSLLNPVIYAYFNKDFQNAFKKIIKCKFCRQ
As to the kind of experiment: Radioligand binding, 5-HT1A. The settings on record: read-out: Binding affinity Ki (nM), 5-HT1A.

A further assay has as its target D2R (Homo sapiens, UniProt P14416). Nature of the assay: Radioligand binding, D2R. The settings on record: read-out: Binding affinity Ki (nM), D2R; radioligand binding.
In a further assay the target is D5R (Homo sapiens, UniProt P21918). As to the kind of experiment: Radioligand binding, D5R. The settings on record: read-out: Binding affinity Ki (nM), D5R; radioligand binding.
Sequence of D5R (P21918 whole entry): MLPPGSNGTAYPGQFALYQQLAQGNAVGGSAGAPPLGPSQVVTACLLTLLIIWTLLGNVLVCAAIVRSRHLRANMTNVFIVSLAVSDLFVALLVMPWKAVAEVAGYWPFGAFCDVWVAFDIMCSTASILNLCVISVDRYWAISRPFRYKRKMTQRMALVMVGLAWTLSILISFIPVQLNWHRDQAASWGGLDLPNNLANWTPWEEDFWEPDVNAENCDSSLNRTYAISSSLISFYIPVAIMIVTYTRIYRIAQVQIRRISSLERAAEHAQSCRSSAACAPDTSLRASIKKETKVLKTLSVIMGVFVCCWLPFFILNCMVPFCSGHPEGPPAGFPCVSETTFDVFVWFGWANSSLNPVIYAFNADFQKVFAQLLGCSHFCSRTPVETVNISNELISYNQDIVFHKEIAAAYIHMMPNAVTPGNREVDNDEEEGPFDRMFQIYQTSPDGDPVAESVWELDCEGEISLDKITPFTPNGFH
For another assay, the target named is D1R (Homo sapiens, UniProt P21728). As to the kind of experiment: Radioligand binding, D1R. The following applies: read-out: Binding affinity Ki (nM), D1R; radioligand binding.
Sequence of D1R (P21728 whole entry): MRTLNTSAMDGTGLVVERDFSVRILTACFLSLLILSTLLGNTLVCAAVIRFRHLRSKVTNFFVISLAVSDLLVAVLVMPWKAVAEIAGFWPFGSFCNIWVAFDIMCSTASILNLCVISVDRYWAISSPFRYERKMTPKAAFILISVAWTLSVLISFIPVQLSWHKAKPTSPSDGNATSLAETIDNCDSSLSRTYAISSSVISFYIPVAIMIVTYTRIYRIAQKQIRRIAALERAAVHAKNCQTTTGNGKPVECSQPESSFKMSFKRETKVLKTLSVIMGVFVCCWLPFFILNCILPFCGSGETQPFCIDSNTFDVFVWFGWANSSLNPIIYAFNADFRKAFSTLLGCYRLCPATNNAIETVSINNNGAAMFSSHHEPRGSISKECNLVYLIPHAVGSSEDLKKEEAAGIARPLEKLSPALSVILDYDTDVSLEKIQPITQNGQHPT
The target of the next assay is human D2Rlong (Homo sapiens, UniProt P14416). As to the kind of experiment: DiscoverX PathHunter D2R β-arrestin-2 recruitment assay. It counts as cell-based. The following applies: D2R-expressing CHO cells; up to 10 µM; n=1, performed in duplicate.
Sequence of human D2Rlong (P14416 whole entry): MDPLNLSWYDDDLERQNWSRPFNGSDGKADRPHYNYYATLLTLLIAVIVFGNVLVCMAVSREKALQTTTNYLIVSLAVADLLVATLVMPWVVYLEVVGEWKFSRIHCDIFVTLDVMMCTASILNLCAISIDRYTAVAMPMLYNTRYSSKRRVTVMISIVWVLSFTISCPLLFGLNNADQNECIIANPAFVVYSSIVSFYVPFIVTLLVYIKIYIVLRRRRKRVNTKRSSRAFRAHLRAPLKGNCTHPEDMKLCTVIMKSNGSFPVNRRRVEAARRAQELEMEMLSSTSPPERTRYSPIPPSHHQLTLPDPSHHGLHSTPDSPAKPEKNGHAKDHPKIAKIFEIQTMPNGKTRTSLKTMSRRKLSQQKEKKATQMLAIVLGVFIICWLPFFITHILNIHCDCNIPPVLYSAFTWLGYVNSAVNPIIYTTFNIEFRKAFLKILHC
[1] abbreviates: read-out: cAMP Emax (%), HEK293T cells, GloSensor-22F, normalized to maximum cAMP inhibition by quinpirole (100%).

Structures are written as SMILES. Several values for one entry are separate records, joined by “and”; a condition that tells them apart may be missing. Equal values may be shown once. Entries after “also recorded” stand apart in the source; their conditions may differ. Read-outs that look alike come from different tables or passages of the source.

Sequence of hD2L receptors (P14416 whole entry): as above
Sequence of D2L receptors (P14416 whole entry): as above
Sequence of D2R (P14416 whole entry): as above
Sequence of 5-HT1D (P28221 whole entry, species assumed): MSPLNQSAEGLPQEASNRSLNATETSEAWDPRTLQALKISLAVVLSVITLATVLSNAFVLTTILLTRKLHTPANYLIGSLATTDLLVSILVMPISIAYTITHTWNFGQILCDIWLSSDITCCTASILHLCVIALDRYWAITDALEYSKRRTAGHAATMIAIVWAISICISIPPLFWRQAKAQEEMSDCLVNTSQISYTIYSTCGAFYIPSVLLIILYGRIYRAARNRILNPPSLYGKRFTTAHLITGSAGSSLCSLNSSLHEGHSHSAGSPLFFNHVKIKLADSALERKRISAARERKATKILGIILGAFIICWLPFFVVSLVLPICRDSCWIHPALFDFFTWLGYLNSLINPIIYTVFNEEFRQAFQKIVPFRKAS

Take `CNc1nc2cc(OCCCCN3CCN(c4cccc5c4OCCO5)CC3)ccc2s1` [Compound 57, 5-(4-(4-(2,3-Dihydrobenzo[b][1,4]dioxin-5-yl)piperazin-1-yl)butoxy)-N-methylbenzo[d]thiazol-2-amine]: the “activity in Gi/o signaling (in words)” value on hD2L receptors is “inactive”. The “activity in β-arrestin recruitment (in words)” value at D2L receptors (Tango assay) was “inactive”.
As to `CCc1nc2cc(OCCCCN3CCN(c4cccc5c4OCCO5)CC3)ccc2s1` [Compound 52, 5-(4-(4-(2,3-Dihydrobenzo[b][1,4]dioxin-5-yl)piperazin-1-yl)butoxy)-2-ethylbenzo[d]thiazole], the “activity in Gi/o signaling (in words)” value on hD2L receptors is “inactive”. Moreover, at D2L receptors (Tango assay), the “activity in β-arrestin recruitment (in words)” value was “inactive”.
On to `CN(C)c1nc2cc(OCCCCN3CCN(c4cccc(Cl)c4Cl)CC3)ccc2s1` [Compound 25, 5-(4-(4-(2,3-Dichlorophenyl)piperazin-1-yl)butoxy)-N,N-dimethylbenzo[d]thiazol-2-amine], for which the “activity in Gi/o signaling (in words)” value on hD2L receptors was “did not show any activity”. On D2L receptors (Tango assay), the “activity in β-arrestin recruitment (in words)” value is reported as “did not show any activity”.
What is called Emax is the size of the effect at its maximum, as opposed to the concentration needed. As to `CC(C)c1nc2cc(OCCCCN3CCN(c4cccc(Cl)c4Cl)CC3)ccc2s1` [Compound 19, 5-(4-(4-(2,3-Dichlorophenyl)piperazin-1-yl)butoxy)-2-isopropylbenzo[d]thiazole], the Emax was 33% at hD2L receptors (setting [1]) and less than 20% at D2L receptors.
As a reminder, the EC50 is the concentration at which the effect is half-maximal. Read a high EC50 as a less potent agent. For the compound `Cc1nc2ccc(OCCCCN3CCC(c4cccc(Cl)c4Cl)CC3)cc2s1` [Compound 58, 6-(4-(4-(2,3-Dichlorophenyl)piperidin-1-yl)butoxy)-2-methylbenzo[d]thiazole], the maximal effect (Emax) on hD2L receptors (setting [1]) is 56%; at D2L receptors, 24%. Further, on D2L receptors (Tango assay, HTLA cells), it took 460 nM to reach a half-maximal effect (EC50).
What is called Ki is a dissociation constant, usually derived from enzyme kinetics or from competition with a known ligand. With `CNc1nc2cc(OCCCCN3CCN(c4cccc(Cl)c4Cl)CC3)ccc2s1` [Compound 24, 5-(4-(4-(2,3-Dichlorophenyl)piperazin-1-yl)butoxy)-N methylbenzo[d]thiazol-2-amine], the inhibition constant Ki was 1400 nM on 5-HT1B; 280 nM at D4R; 35 nM on D3R; 12 nM on 5-HT2B; 390 nM on 5-HT1D; 100 nM at 5-HT7. In addition, the Ki was determined as 72 nM at 5-HT2A; 55 nM on 5-HT1A; 60 nM at D2R; 1500 nM on D5R; 1100 nM at D1R. In addition, at hD2L receptors (HEK293T cells, GloSensor-22F, normalized to maximum cAMP inhibition by quinpirole (100%)), the “cAMP Emax (%)” value worked out at 40%. Besides, on mouse D2Long (up to 1 µM, GRK2 co-expressed), the “β-arrestin-2 recruitment agonist activity in BRET assay” value was “not active; also recorded: no β-arrestin recruitment”. For the same compound, at D2L receptors (Tango assay, HTLA cells, normalized to quinpirole (100%)), the “β-arrestin Emax (%)” value is less than 20%.
In the case of `Cc1nc2cc(OCCCCN3CCC(c4cccc(Cl)c4Cl)CC3)ccc2s1` [Compound 30, 5-(4-(4-(2,3-Dichlorophenyl)piperidin-1-yl)butoxy)-2-methylbenzo[d]thiazole], the Emax amounted to 66% at hD2L receptors (read-out: cAMP Emax (%)) and 31% at D2L receptors. On D2L receptors (Tango assay, HTLA cells), this compound displayed a concentration giving a half-maximal response (EC50) of 49 nM.
`CCc1nc2cc(OCCCCN3CCN(c4cccc(Cl)c4Cl)CC3)ccc2s1` [Compound 18, 5-(4-(4-(2,3-Dichlorophenyl)piperazin-1-yl)butoxy)-2-ethylbenzo[d]thiazole]: the Emax at hD2L receptors (setting [1]) is 43%; on D2L receptors, less than 20%.
Take `O=c1[nH]c2cc(OCCCCN3CCN(c4cccc(Cl)c4Cl)CC3)ccc2s1` [Compound 7, 5-(4-(4-(2,3-Dichlorophenyl)piperazin-1-yl)butoxy)benzo[d]thiazol-2(3H)-one]: the Emax at hD2L receptors (read-out: cAMP Emax (%)) is 67%; on D2L receptors, 59%. On D2L receptors (Tango assay, HTLA cells), the EC50 was 2.6 nM.
Regarding `CNc1nc2cc(OCCCCN3CCN(c4cccc5c4OCCN5)CC3)ccc2s1` [Compound 56, 5-(4-(4-(3,4-Dihydro-2H-benzo[b][1,4]oxazin-8-yl)piperazin-1-yl)butoxy)-N-methylbenzo[d]thiazol-2-amine], the Emax at hD2L receptors (setting [1]) is 49%; at D2L receptors, 29%. At D2L receptors (Tango assay, HTLA cells), the EC50 is 6.5 nM.
For `Cc1ccc2cccc(N3CCN(CCCCOc4ccc5sc(C)nc5c4)CC3)c2n1` [Compound 36, 2-Methyl-5-(4-(4-(2-methylquinolin-8-yl)piperazin-1-yl)butoxy)benzo[d]thiazole], the maximum response (Emax) at hD2L receptors (read-out: cAMP Emax (%)) was 25%; on D2L receptors it was less than 20%.
Regarding `Clc1nc2cc(OCCCCN3CCN(c4cccc(Cl)c4Cl)CC3)ccc2s1` [Compound 6, 2-Chloro-5-(4-(4-(2,3-dichlorophenyl)piperazin-1-yl)butoxy)benzo[d]thiazole], the Emax at hD2L receptors (setting [1]) was found to be 50%; on D2L receptors, 40%. Also, a half-maximal effect on D2L receptors (Tango assay, HTLA cells) (EC50) was put at 48 nM.
As to `Cc1nc2cc(OCCCCN3CCN(c4cccc5c4OCCN5)CC3)ccc2s1` [Compound 39, 8-(4-(4-((2-Methylbenzo[d]thiazol-5-yl)oxy)butyl)piperazin-1-yl)-3,4-dihydro-2H-benzo[b][1,4]oxazine], the Emax at hD2L receptors (read-out: cAMP Emax (%)) was 29%; on D2L receptors, less than 20%. Also, the “activity in β-arrestin recruitment (in words)” value at D2L receptors (Tango assay) was “did not recruit β-arrestin at all”.
For `Cc1nc2cc(OCCCCN3CCN(c4cccc(-c5ccccc5)c4C)CC3)ccc2s1` [Compound 44, 2-Methyl-5-(4-(4-(2-methyl-[1,1'-biphenyl]-3-yl)piperazin-1-yl)butoxy)benzo[d]thiazole], the “activity in Gi/o signaling (in words)” value on hD2L receptors is “completely inactive”. For the same compound, the “activity in β-arrestin recruitment (in words)” value at D2L receptors (Tango assay) is “completely inactive”.
Regarding `Oc1c(CN2CCN(c3ccccn3)CC2)cc(Cl)c2cccnc12` [Compound 59, 5-Chloro-7-((4-(pyridin-2-yl)piperazin-1-yl)methyl)quinolin-8-ol, reference compound], the maximal response (Emax) at hD2L receptors (read-out: cAMP Emax (%)) turned out to be 63%; on mouse D2Long (HEK-293T, read-out: β-arrestin-2 recruitment BRET Emax (% of quinpirole)), 68%; at D2L receptors it was 67%. Besides, at D2L receptors (Tango assay, HTLA cells), the EC50 is 102 nM and 46 nM. Also, at human D2Rlong, the “β-arrestin recruitment activity as measured by DiscoverX” value was “lack of β-arrestin-2 recruitment activity; also recorded: no activity”.

Values taken from paper PMC5148701 (Journal of medicinal chemistry, 2016).
